The target in assay [1] is Bile salt export pump (Homo sapiens, UniProt O95342). The experiment in a line: Inhibition of human BSEP overexpressed in Sf9 cell membrane vesicles assessed as uptake of [3H]-taurocholate in presence of ATP measured after 15 to 20 mins by membrane vesicle transport assay. The format is ADME, cell-based.
Assay [2] concerns the target T1, ATP-binding cassette sub-family C member 4 (Homo sapiens, UniProt O15439).
T1 sequence (O15439 whole entry): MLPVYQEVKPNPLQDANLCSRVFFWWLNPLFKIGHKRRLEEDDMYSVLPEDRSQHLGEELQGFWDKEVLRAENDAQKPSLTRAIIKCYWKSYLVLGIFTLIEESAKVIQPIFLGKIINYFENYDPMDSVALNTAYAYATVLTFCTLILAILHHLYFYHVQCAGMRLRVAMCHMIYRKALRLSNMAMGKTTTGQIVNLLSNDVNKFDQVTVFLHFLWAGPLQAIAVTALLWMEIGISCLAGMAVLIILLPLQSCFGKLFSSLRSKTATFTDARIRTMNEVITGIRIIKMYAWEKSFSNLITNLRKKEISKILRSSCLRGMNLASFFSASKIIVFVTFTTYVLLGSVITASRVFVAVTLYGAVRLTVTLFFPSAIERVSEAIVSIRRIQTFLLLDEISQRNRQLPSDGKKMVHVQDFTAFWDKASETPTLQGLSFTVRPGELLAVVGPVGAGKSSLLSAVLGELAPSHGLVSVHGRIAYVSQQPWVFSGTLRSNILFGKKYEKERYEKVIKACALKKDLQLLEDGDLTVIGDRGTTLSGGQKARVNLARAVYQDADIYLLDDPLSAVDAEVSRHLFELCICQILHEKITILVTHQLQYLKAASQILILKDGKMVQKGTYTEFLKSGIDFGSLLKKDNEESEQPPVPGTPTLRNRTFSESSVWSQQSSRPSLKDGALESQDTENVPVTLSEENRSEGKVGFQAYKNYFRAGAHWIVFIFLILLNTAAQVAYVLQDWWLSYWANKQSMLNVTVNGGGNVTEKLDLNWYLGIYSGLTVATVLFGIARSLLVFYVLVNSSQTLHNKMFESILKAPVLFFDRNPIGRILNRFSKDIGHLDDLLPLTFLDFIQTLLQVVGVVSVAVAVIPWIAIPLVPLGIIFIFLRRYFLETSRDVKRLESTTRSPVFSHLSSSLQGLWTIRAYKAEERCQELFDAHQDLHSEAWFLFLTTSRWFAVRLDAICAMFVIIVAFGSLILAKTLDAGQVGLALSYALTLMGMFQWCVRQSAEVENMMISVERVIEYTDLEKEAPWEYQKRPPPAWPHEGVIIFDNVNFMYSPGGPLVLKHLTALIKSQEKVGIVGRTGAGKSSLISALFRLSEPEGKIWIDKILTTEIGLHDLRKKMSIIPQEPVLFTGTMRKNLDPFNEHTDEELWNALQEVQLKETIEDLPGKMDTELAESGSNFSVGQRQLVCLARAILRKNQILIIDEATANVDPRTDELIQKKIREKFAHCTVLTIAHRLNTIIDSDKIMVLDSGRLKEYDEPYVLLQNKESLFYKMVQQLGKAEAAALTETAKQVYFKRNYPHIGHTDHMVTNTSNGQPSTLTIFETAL
The assay can be described thus: Inhibition of human MRP4 overexpressed in Sf9 cell membrane vesicles assessed as uptake of [3H]-estradiol-17beta-D-glucuronide in presence of ATP and GSH measured after 20 mins by membrane vesicle transport assay. The format is ADME, cell-based.

Assay [3] addresses ATP-binding cassette sub-family C member 3 (Homo sapiens, UniProt O15438). The assay can be described thus: Inhibition of human MRP3 overexpressed in Sf9 insect cell membrane vesicles assessed as uptake of [3H]-estradiol-17beta-D-glucuronide in presence of ATP and GSH measured after 10 mins by membrane vesicle transport assay. The format is ADME, cell-based.
Assay [4] has as its target ATP-binding cassette sub-family C member 2 (Homo sapiens, UniProt Q92887). The experiment in a line: Inhibition of human MRP2 overexpressed in Sf9 cell membrane vesicles assessed as uptake of [3H]-estradiol-17beta-D-glucuronide in presence of ATP and GSH measured after 20 mins by membrane vesicle transport assay.

Counter-ions that a name gives are not always drawn.

Chain of ATP-binding cassette sub-family C member 3 (O15438 whole entry): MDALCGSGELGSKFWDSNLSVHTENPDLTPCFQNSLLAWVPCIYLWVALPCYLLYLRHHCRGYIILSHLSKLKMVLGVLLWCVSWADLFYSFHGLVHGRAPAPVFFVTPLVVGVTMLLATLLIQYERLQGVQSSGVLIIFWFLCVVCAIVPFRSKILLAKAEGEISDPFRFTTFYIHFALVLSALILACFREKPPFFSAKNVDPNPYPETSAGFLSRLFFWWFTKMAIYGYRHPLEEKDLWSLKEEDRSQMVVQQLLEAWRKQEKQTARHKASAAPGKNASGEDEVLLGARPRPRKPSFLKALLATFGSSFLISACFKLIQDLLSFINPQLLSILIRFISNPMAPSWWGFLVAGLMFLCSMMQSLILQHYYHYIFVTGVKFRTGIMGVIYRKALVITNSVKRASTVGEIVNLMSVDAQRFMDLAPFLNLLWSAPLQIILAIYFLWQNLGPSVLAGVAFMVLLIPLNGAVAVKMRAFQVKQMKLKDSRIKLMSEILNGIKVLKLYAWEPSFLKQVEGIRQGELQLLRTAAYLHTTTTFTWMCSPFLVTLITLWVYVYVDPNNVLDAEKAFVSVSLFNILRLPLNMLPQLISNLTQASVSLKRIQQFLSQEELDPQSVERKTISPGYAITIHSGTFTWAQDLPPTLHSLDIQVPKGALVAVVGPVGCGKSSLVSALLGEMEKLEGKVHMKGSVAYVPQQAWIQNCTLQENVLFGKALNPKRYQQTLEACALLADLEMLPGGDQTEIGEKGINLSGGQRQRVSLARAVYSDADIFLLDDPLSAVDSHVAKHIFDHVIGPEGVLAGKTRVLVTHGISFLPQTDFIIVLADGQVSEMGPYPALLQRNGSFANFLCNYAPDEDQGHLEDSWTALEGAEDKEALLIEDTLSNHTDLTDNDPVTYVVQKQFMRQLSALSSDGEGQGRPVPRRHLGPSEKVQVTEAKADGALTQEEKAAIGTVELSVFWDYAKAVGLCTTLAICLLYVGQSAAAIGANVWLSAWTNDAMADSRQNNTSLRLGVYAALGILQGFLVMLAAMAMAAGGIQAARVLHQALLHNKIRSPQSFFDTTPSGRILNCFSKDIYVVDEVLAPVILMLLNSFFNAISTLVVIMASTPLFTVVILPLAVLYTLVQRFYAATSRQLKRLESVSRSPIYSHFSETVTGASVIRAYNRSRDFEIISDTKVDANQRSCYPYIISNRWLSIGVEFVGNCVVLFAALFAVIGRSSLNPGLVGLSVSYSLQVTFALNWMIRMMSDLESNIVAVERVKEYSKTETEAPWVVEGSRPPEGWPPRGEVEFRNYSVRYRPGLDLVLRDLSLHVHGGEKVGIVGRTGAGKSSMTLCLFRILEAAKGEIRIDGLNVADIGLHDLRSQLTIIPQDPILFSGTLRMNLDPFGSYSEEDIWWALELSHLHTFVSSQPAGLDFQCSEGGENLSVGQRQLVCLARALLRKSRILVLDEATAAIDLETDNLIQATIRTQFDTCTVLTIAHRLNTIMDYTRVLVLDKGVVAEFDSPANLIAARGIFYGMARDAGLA
Chain of Bile salt export pump (O95342 whole entry): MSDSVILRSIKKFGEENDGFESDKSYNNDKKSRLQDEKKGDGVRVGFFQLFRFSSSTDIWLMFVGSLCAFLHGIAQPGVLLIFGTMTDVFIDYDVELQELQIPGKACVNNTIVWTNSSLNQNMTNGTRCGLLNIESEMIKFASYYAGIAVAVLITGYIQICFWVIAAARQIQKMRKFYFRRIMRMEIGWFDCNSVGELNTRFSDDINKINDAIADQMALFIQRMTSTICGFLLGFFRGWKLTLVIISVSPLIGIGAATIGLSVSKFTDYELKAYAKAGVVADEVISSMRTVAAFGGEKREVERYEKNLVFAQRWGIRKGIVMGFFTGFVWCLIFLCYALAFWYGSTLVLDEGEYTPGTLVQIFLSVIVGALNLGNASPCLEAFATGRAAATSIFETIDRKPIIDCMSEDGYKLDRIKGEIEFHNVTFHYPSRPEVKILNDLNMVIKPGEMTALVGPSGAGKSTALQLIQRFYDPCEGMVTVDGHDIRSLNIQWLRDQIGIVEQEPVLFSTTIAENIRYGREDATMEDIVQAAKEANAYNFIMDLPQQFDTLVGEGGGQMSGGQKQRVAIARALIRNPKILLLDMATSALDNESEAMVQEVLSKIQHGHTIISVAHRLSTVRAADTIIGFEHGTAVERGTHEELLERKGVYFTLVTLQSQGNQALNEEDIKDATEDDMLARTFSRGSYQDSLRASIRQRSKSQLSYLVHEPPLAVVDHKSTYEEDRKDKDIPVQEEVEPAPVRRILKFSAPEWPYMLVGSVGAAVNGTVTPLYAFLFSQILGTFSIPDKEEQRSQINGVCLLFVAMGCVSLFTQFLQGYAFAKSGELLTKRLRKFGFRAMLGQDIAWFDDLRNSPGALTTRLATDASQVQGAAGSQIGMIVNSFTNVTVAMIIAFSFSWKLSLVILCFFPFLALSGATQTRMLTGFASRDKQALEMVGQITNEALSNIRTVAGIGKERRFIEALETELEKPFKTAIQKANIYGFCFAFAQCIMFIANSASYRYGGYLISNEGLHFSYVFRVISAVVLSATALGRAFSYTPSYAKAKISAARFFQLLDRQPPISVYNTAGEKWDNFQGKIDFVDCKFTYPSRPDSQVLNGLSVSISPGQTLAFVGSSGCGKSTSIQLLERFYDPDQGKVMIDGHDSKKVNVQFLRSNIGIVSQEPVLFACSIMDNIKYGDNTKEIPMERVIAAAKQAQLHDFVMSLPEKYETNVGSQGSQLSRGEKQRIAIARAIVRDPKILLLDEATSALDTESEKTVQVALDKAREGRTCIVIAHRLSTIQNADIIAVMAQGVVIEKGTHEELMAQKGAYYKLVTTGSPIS
Chain of ATP-binding cassette sub-family C member 2 (Q92887 whole entry): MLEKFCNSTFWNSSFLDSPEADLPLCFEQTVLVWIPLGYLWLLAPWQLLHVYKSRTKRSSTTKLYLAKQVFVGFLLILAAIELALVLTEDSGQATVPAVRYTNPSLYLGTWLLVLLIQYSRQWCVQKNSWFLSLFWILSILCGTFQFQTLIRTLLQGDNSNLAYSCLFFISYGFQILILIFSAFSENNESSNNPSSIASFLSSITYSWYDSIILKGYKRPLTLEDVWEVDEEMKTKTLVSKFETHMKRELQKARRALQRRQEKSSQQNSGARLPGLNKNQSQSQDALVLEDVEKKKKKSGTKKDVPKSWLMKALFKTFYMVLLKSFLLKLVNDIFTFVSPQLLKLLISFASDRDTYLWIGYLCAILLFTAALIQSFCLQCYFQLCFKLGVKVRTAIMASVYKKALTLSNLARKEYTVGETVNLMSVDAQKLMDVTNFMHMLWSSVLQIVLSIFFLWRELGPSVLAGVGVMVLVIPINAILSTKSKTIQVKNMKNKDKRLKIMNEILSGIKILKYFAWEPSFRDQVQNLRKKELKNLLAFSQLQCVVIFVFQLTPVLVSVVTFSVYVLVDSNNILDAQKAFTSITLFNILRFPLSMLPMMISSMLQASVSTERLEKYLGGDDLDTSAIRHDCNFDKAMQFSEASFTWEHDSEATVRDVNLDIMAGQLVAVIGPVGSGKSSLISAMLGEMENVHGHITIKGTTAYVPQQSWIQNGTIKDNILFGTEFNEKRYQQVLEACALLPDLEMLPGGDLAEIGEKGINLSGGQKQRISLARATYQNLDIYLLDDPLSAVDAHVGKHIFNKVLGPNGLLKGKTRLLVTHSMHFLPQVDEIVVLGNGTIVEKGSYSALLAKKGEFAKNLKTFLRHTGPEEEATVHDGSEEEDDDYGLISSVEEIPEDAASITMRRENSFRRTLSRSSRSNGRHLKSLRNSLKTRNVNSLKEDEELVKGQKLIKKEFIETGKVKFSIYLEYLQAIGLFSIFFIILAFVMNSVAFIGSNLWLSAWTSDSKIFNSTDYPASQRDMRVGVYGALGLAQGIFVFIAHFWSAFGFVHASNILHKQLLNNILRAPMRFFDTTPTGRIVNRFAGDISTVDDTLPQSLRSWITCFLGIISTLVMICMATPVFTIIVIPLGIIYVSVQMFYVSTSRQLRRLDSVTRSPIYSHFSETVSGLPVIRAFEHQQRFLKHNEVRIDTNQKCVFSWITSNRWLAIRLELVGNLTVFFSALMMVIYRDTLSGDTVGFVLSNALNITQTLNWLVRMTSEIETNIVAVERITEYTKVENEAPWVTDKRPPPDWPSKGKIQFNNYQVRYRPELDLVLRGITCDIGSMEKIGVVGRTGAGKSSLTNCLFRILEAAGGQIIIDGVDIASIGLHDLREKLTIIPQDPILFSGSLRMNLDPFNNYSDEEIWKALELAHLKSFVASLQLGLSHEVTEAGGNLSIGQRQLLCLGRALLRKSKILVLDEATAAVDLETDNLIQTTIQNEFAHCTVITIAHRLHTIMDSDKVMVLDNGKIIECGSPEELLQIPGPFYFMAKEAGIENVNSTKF

Consider `COc1nc(N)nc2c1ncn2[C@@H]1O[C@H](CO)[C@@H](O)[C@@H]1O` [NELARABINE], for which the IC50 in assay [1], in assay [2], in assay [3] and in assay [4] was over 133 µM in each case.
With `CCC1(C)CC(=O)NC1=O` (stereo not drawn) [ETHOSUXIMIDE], the IC50 in assay [1], in assay [2], in assay [3] and in assay [4] was over 133 µM throughout.
Consider `CC(c1cc2ccccc2s1)N(O)C(N)=O` (stereo not drawn) [ZILEUTON], for which the IC50 in assay [1], in assay [2], in assay [3] and in assay [4] was over 133 µM each time.
On to `CCN(CCO)CCCC(C)Nc1ccnc2cc(Cl)ccc12` (stereo not drawn) [HYDROXYCHLOROQUINE SULFATE], for which the IC50 in assay [1], in assay [2], in assay [3] and in assay [4] was over 133 µM each time.
With `CN1CCC(=C2c3ccccc3CC(=O)c3sccc32)CC1` [KETOTIFEN FUMARATE], the IC50 in assay [1], in assay [2], in assay [3] and in assay [4] was over 133 µM in each case.
With `CC(C)NCC(O)c1ccc(NS(C)(=O)=O)cc1` (stereo not drawn) [SOTALOL], the IC50 in assay [1], in assay [2], in assay [3] and in assay [4] was over 133 µM throughout.
Turning to `C[C@@H]1CCC[C@H](C)N1NC(=O)c1ccc(Cl)c(S(N)(=O)=O)c1` [CLOPAMIDE], the IC50 in assay [1], in assay [2], in assay [3] and in assay [4] was over 133 µM each time.
Take `O=C1c2c(O)cccc2Cc2cccc(O)c21` [ANTHRALIN]: the IC50 in assay [1], in assay [2], in assay [3] and in assay [4] was over 133 µM each time.
As for `CC(=O)SCC(Cc1ccccc1)C(=O)NCC(=O)OCc1ccccc1` (stereo not drawn) [RACECADOTRIL], the IC50 in assay [1] is 20.3 µM; in assay [2] it was over 133 µM; in assay [3], 99 µM; in assay [4], over 133 µM.
Consider SPIRAMYCIN, for which the IC50 in assay [1], in assay [2], in assay [3] and in assay [4] was over 133 µM throughout.
With `Cc1cc(NS(=O)(=O)c2ccc(N)cc2)no1` [SULFAMETHOXAZOLE], the IC50 in assay [1], in assay [2], in assay [3] and in assay [4] was over 133 µM throughout.
Turning to `CC1(C)O[C@@H]2[C@@H](CO[C@@]3(COS(N)(=O)=O)OC(C)(C)O[C@@H]23)O1` [TOPIRAMATE], the IC50 in assay [1], in assay [2], in assay [3] and in assay [4] was over 133 µM in each case.
In the case of `CC1(C)S[C@@H]2[C@H](NC(=O)[C@H](NC(=O)N3CCNC3=O)c3ccccc3)C(=O)N2[C@H]1C(=O)O` [AZLOCILLIN SODIUM], the IC50 in assay [1], in assay [2], in assay [3] and in assay [4] was over 133 µM in each case.
`CCC(=O)O[C@@H]1CC(=O)O[C@H](C)C/C=C/C=C/[C@H](O)[C@H](C)C[C@H](CC=O)[C@H](O[C@@H]2O[C@H](C)[C@@H](O[C@H]3C[C@@](C)(O)[C@@H](OC(=O)CC)[C@H](C)O3)[C@H](N(C)C)[C@H]2O)[C@H]1OC` [MIDECAMYCIN]: the IC50 in assay [1] is 14.3 µM; in assay [2] it was over 133 µM; in assay [3], over 133 µM; in assay [4], over 133 µM.
Take `CC(C)=CCC1C(=O)N(c2ccccc2)N(c2ccccc2)C1=O` [FEPRAZONE]: the IC50 is 73.9 µM in assay [1], over 133 µM in assay [2], over 133 µM in assay [3] and over 133 µM in assay [4].
With `O=C(CC(=O)C(F)(F)F)c1cccs1`, the IC50 in assay [1], in assay [2], in assay [3] and in assay [4] was over 133 µM each time.
`Cc1ccc(-c2nc3ccc(C)cn3c2CC(=O)N(C)C)cc1`: the IC50 in assay [1], in assay [2], in assay [3] and in assay [4] was over 133 µM each time.

The values above are taken from ChEMBL document CHEMBL4028801, “A multifactorial approach to hepatobiliary transporter assessment enables improved therapeutic compound development” (Toxicol Sci, 2013).
